Data published in ChEMBL document CHEMBL5576091, “2'-β-Methylselenyl nucleos(t)ide analogs as reverse transcriptase inhibitors against diverse HIV mutants” (Bioorg Med Chem, 2024).
The source made the active and inactive calls. The calls are words filed in the database; no cut-off is given here.

Legend:
[1] = test system: Human immunodeficiency virus 1; test: Antiviral activity against wild type HIV-1 infected in human TZM-bl cells incubated for 48 hrs by steady glo reagent based […] luminometer analysis; format: functional, organism-based; conditions: Human immunodeficiency virus 1, TZM-bl
[2] = Cytotoxicity against human TZM-bl cells assessed as reduction in cell viability incubated for 48 hrs by MTT assay; format: toxicity, cell-based
[3] = Cytotoxicity against human MT4 cells assessed as reduction in cell viability incubated for 5 days by MTT assay; format: toxicity, cell-based; conditions: time 5 day
[4] = test system: Human immunodeficiency virus 1; test: Antiviral activity against lamivudine resistant HIV-1 harboring RT M184V mutant infected in human TZM-bl cells incubated for 48 hrs by steady glo reagent based […] luminometer analysis; format: functional, organism-based; conditions: Human immunodeficiency virus 1, TZM-bl
[5] = test system: Human immunodeficiency virus 1; test: Antiviral activity against azidothymidine resistant HIV-1 harboring RT M41L/T215Y mutant infected in human TZM-bl cells incubated for 48 hrs by steady glo reagent based […] luminometer analysis; format: functional, organism-based; conditions: Human immunodeficiency virus 1, TZM-bl
[6] = test system: Human immunodeficiency virus 1; test: Antiviral activity against multidrug resistant HIV-1 harboring RT M41L/T69SSG/T215Y mutant infected in human TZM-bl cells incubated for 48 hrs by steady glo reagent based […] luminometer analysis; format: functional, organism-based; conditions: Human immunodeficiency virus 1, TZM-bl
Homo sapiens [7] = species on record: Homo sapiens; test: Substrate activity at Taq DNA polymerase (unknown origin) assessed as incorporation into DNA incubated for 60 mins in presence of FAM labeled primer DNA, template DNA, dNTPs by fluorescence based primer extension assay
Homo sapiens [8] = species on record: Homo sapiens; test: Substrate activity at Phi29 DNA polymerase (unknown origin) assessed as incorporation into DNA incubated for 60 mins in presence of FAM labeled primer DNA, template DNA, dNTPs by fluorescence based primer extension assay
[9] = test system: Avian myeloblastosis virus; test: Substrate activity at Avian myeloblastosis virus reverse transcriptase assessed as incorporation into DNA incubated for 60 mins in presence of FAM labeled primer DNA, template DNA, dNTPs by fluorescence based primer extension assay
[10] = target: Human immunodeficiency virus type 1 reverse transcriptase (Human immunodeficiency virus 1) (UniProt Q72547); test: Substrate activity at HIV-1 reverse transcriptase assessed as formation of single elongation product at 100 uM incubated for 60 mins in presence of FAM labeled 13-mer primer DNA, 20-mer template RNA, dNTPs by fluorescence based primer extension assay
[11] = target: Human immunodeficiency virus type 1 reverse transcriptase (Human immunodeficiency virus 1) (UniProt Q72547); test: Substrate activity at HIV-1 reverse transcriptase assessed as formation of single elongation product by measuring elongation efficiency at 100 uM incubated for 60 mins in presence of FAM labeled 13-mer primer DNA, 20-mer template RNA, dNTPs by fluorescence based primer extension assay relative to control
[12] = target: Human immunodeficiency virus type 1 reverse transcriptase (Human immunodeficiency virus 1) (UniProt Q72547); test: Substrate activity at HIV-1 reverse transcriptase assessed as formation of single elongation product at 400 uM in presence of 3.6 ng/uL enzyme, FAM labeled 13-mer primer DNA, 20-mer template RNA, dNTPs by fluorescence based primer extension assay; conditions: time 0-60 min, TDE = time-dependent effect
[13] = target: Human immunodeficiency virus type 1 reverse transcriptase (Human immunodeficiency virus 1) (UniProt Q72547); test: Substrate activity at HIV-1 reverse transcriptase assessed as formation of single elongation product by measuring elongation efficiency at 400 uM incubated for 60 mins in presence of 3.6 ng/uL enzyme, FAM labeled 13-mer primer DNA, 20-mer template RNA, dNTPs by fluorescence based primer extension assay relative to control
[14] = target: Human immunodeficiency virus type 1 reverse transcriptase (Human immunodeficiency virus 1) (UniProt Q72547); test: Substrate activity at HIV-1 reverse transcriptase assessed as formation of single elongation product by measuring elongation efficiency at 400 uM incubated for 5 mins in presence of 14.4 ng/uL enzyme, FAM labeled 13-mer primer DNA, 20-mer template RNA, dNTPs by fluorescence based primer extension assay relative to control
[15] = target: Human immunodeficiency virus type 1 reverse transcriptase (Human immunodeficiency virus 1) (UniProt Q72547); test: Substrate activity at HIV-1 reverse transcriptase assessed as formation of single elongation product by measuring elongation efficiency at 400 uM incubated for 60 mins in presence of 14.4 ng/uL enzyme, FAM labeled 13-mer primer DNA, 20-mer template RNA, dNTPs by fluorescence based primer extension assay relative to control
[16] = target: Human immunodeficiency virus type 1 reverse transcriptase (Human immunodeficiency virus 1) (UniProt Q72547); test: Substrate activity at HIV-1 reverse transcriptase assessed as formation of single elongation product at 50 to 400 uM incubated for 60 mins in presence of 14.4 ng/uL enzyme, FAM labeled primer DNA, template RNA, dNTPs by fluorescence based primer extension assay; conditions: dose 50-400 µM
[17] = target: Human immunodeficiency virus type 1 reverse transcriptase (Human immunodeficiency virus 1) (UniProt Q72547); test: Substrate activity at HIV-1 reverse transcriptase assessed as formation of multiple elongation products at 50 to 400 uM incubated for 60 mins in presence of 14.4 ng/uL enzyme, FAM labeled primer DNA, template RNA, dNTPs by fluorescence based primer extension assay; conditions: dose 50-400 µM
[18] = target: Human immunodeficiency virus type 1 reverse transcriptase (Human immunodeficiency virus 1) (UniProt Q72547); test: Substrate activity at HIV-1 reverse transcriptase assessed as 14-mer product formation incubated for 60 mins in presence of 14.4 ng/uL enzyme, FAM labeled primer DNA, template RNA, dNTPs by fluorescence based primer extension assay; conditions: dose 50-400 µM
[19] = target: Human immunodeficiency virus type 1 reverse transcriptase (Human immunodeficiency virus 1) (UniProt Q72547); test: Substrate activity at HIV-1 reverse transcriptase assessed as 15-mer product formation incubated for 60 mins in presence of 14.4 ng/uL enzyme, FAM labeled primer DNA, template RNA, dNTPs by fluorescence based primer extension assay; conditions: dose 50-400 µM
[20] = target: Human immunodeficiency virus type 1 reverse transcriptase (Human immunodeficiency virus 1) (UniProt Q72547); test: Substrate activity at HIV-1 reverse transcriptase assessed as mismatch elongation mediated 19-mer product formation at 50 to 400 uM incubated for 60 mins in presence of 14.4 ng/uL enzyme, FAM labeled primer DNA, template RNA, dNTPs by fluorescence based primer extension assay; conditions: dose 50-400 µM
[21] = target: Human immunodeficiency virus type 1 reverse transcriptase (Human immunodeficiency virus 1) (UniProt Q72547); test: Substrate activity at HIV-1 reverse transcriptase assessed as mismatch elongation mediated 20-mer product formation at 50 to 400 uM incubated for 60 mins in presence of 14.4 ng/uL enzyme, FAM labeled primer DNA, template RNA, dNTPs by fluorescence based primer extension assay; conditions: dose 50-400 µM
[22] = target: Human immunodeficiency virus type 1 reverse transcriptase (Human immunodeficiency virus 1) (UniProt Q72547); test: Substrate activity at HIV-1 reverse transcriptase assessed as increase in multiple base elongation product at 100 uM in presence of FAM labeled 13-mer primer DNA, 20-mer template RNA, dNTPs by fluorescence based primer extension assay; conditions: time 0-60 min, TDE = time-dependent effect

Row | SMILES | EC50 [1] [µM] | CC50 at 48 h [2] [µM] | CC50 at 120 h [3] [µM] | EC50 [4] [µM] | EC50 [5] [µM] | EC50 [6] [µM] | also measured
1 | C[Se][C@H]1[C@H](O)[C@@H](COP(=O)(N[C@@H](C)C(=O)OC(C)C)Oc2ccccc2)O[C@H]1n1cnc2c(=O)[nH]c(N)nc21 (stereo not given in full) | > 20 | 63 | 51 | – | – | – | –
2 | COc1nc(N)nc2c1ncn2[C@@H]1O[C@H](CO)[C@@H](O)[C@@H]1[Se]C | > 20 | > 100 | > 100 | > 20 | > 20 | > 20 | –
3 | O=c1[nH]cnc2c1ncn2[C@H]1CC[C@@H](CO)O1 [DIDANOSINE] | 4.2 | > 100 | > 100 | 7.1 | 4.6 | 25 | –
4 | C[Se][C@H]1[C@H](O)[C@@H](CO)O[C@H]1n1cnc2c(N)ncnc21 | > 100 | > 100 | > 100 | > 100 | > 100 | > 100 | –
5 | CCCC(CC)OC(=O)[C@H](C)N[P@](=O)(OC[C@H]1O[C@@H](n2cnc3c(N)ncnc32)[C@@H]([Se]C)[C@@H]1O)Oc1ccccc1 (stereo not given in full) | 2.6 | > 100 | > 100 | 4.4 | 5.5 | – | –
6 | C[Se][C@H]1[C@H](O)[C@@H](COP(=O)(N[C@@H](C)C(=O)OC(C)C)Oc2ccccc2)O[C@H]1n1cnc2c(N)ncnc21 (stereo not given in full) | 3.7 | > 100 | > 100 | 6.8 | 7 | 3.8 | –
7 | C[Se][C@H]1[C@H](O)[C@@H](CO)O[C@H]1n1cnc2c(N)nc(F)nc21 | > 20 | 29 | 12 | > 20 | > 20 | > 20 | –
8 | COc1nc(N)nc2c1ncn2[C@@H]1O[C@H](COP(=O)(N[C@@H](C)C(=O)OC(C)C)Oc2ccccc2)[C@@H](O)[C@@H]1[Se]C (stereo not given in full) | 54 | > 100 | > 100 | 46 | 45 | 61 | –
9 | C[Se][C@H]1[C@H](O)[C@@H](CO[P@@](=O)(N[C@@H](C)C(=O)OC(C)C)Oc2ccccc2)O[C@H]1n1cnc2c(N)nc(F)nc21 | > 20 | 80 | > 100 | – | – | – | –
10 | C[Se][C@H]1[C@H](O)[C@@H](COP(=O)(N[C@@H](C)C(=O)OC(C)C)Oc2ccccc2)O[C@H]1n1cc(C)c(=O)[nH]c1=O (stereo not given in full) | – | 0.006 | 0.007 | – | – | – | –
11 | C[Se][C@H]1[C@H](O)[C@@H](CO)O[C@H]1n1cnc2c(N)nc(N)nc21 | > 100 | > 100 | > 100 | > 100 | > 100 | > 100 | –
12 | C[Se][C@H]1[C@H](O)[C@@H](COP(=O)(O)OP(=O)(O)OP(=O)(O)O)O[C@H]1n1cnc2c(N)ncnc21 | – | – | – | – | – | – | Activity (Homo sapiens [7]): inactive; Activity (Homo sapiens [8]): inactive; Activity [9]: Active; Activity [10]: Active; Activity [11]: 80%; Activity [12]: Tde; Activity [13]: 77%; Activity [14]: 70%; Activity [15]: 94%; Activity [16]: Active; Activity [17]: Active; Activity [18]: Dose-Dependent Effect; Activity [19]: Dose-Dependent Effect; Activity [20]: Active; Activity [21]: Active
13 | C[Se][C@H]1[C@H](O)[C@@H](COP(=O)(N[C@@H](C)C(=O)OC(C)C)Oc2ccccc2)O[C@H]1n1cnc2c(N)nc(N)nc21 (stereo not given in full) | > 0.8 | 2.8 | 5.5 | – | – | – | –
14 | Cc1cn([C@H]2C[C@H](N=[N+]=[N-])[C@@H](CO)O2)c(=O)[nH]c1=O [ZIDOVUDINE] | 0.03 | > 100 | 51 | 0.022 | 0.09 | 13 | –
15 | C[Se][C@H]1[C@H](O)[C@@H](COP(=O)(N[C@@H](C)C(=O)OC(C)C)Oc2ccccc2)O[C@H]1n1ccc(=O)[nH]c1=O (stereo not given in full) | – | 0.004 | 0.007 | – | – | – | –
16 | Nc1ncnc2c1ncn2[C@H]1C[C@H](O)[C@@H](COP(=O)(O)OP(=O)(O)OP(=O)(O)O)O1 | – | – | – | – | – | – | Activity [22]: Tde
17 | C[Se][C@H]1[C@H](O)[C@@H](CO)O[C@H]1n1cc(C)c(=O)[nH]c1=O | – | 0.25 | 0.72 | – | – | – | –
18 | C[Se][C@H]1[C@H](O)[C@@H](CO[P@@](=O)(N[C@@H](C)C(=O)OC(C)C)Oc2ccccc2)O[C@H]1n1cnc2c(N)ncnc21 | 2.2 | > 100 | > 100 | 5.7 | 5.8 | 2.8 | –
19 | Nc1ccn([C@@H]2CS[C@H](CO)O2)c(=O)n1 [LAMIVUDINE] | 0.52 | > 100 | > 100 | > 100 | 0.85 | 9.8 | –
20 | C[Se][C@H]1[C@H](O)[C@@H](CO)O[C@H]1n1ccc(=O)[nH]c1=O | – | 0.005 | 0.006 | – | – | – | –
21 | C[Se][C@H]1[C@H](O)[C@@H](CO)O[C@H]1n1cnc2c(=O)[nH]c(N)nc21 | > 100 | > 100 | > 100 | > 100 | > 100 | > 100 | –
22 | Nc1ncnc2c1ncn2[C@H]1CC[C@@H](COP(=O)(O)OP(=O)(O)OP(=O)(O)O)O1 | – | – | – | – | – | – | Activity [16]: Active
